In paper PMC4367188 (ACS Chemical Neuroscience, 2015):
Converted amounts (≈) assume the structure as drawn. “Also recorded” adds a separate entry of the source.

Tests used:
[1] = molecular target: ChAT (Mus musculus, UniProt Q03059); assay: ChAT activity in mouse forebrain extracts; format: biochemical; settings: concentrations well above the CHT Ki
[2] = molecular target: Interleukin IL-1 (Mus musculus, UniProt P13504); assay: Lead Profiling Screen radioligand binding
[3] = molecular target: Adrenergic β2 (Homo sapiens, UniProt P07550); assay: Lead Profiling Screen radioligand binding
[4] = tested on: Thyroid Hormone; assay: Lead Profiling Screen radioligand binding; settings: 10 μM ML352
[5] = molecular target: P450 2D6 (Homo sapiens, UniProt P10635); assay: cytochrome P450 inhibition
[6] = pharmacokinetics in male Sprague-Dawley rats; settings: rat
[7] = tested on: Phorbol Ester; assay: Lead Profiling Screen radioligand binding; settings: 10 μM ML352
[8] = molecular target: Adrenergic β1 (Homo sapiens, UniProt P08588); assay: Lead Profiling Screen radioligand binding
[9] = molecular target: Adrenergic α1A (Rattus norvegicus, UniProt P43140); assay: Lead Profiling Screen radioligand binding
[10] = molecular target: Prostanoid EP4 (Homo sapiens, UniProt P35408); assay: Lead Profiling Screen radioligand binding
[11] = molecular target: Transporter, Norepinephrine (NET) (Homo sapiens, UniProt P23975); assay: Lead Profiling Screen radioligand binding
[12] = molecular target: T1, hCHT (Homo sapiens, UniProt Q9GZV3); assay: [3H]HC-3 binding to membranes from HEK hCHT cells; settings: for [3H]HC-3 binding Bmax: relative to control
T1 sequence (Q9GZV3 1-580): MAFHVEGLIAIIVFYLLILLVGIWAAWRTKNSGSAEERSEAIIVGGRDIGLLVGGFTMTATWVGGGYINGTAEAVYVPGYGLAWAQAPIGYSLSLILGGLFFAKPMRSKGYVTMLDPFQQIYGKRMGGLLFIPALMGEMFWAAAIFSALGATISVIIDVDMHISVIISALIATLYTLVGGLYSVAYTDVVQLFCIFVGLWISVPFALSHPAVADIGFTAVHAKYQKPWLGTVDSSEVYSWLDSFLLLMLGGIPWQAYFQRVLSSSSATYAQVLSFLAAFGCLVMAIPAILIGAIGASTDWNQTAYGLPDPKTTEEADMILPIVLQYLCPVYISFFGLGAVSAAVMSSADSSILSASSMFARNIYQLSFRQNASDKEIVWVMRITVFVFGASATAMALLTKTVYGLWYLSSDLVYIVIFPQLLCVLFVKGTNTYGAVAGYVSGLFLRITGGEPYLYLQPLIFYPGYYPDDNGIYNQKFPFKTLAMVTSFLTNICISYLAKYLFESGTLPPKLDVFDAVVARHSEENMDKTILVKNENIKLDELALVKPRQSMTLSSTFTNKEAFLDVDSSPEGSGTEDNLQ

[13] = molecular target: Muscarinic M1 (Homo sapiens, UniProt P11229); assay: Lead Profiling Screen radioligand binding
[14] = molecular target: Nicotinic Acetylcholine α1, Bungarotoxin (Homo sapiens, UniProt P02708+P07510+Q07001); assay: Lead Profiling Screen radioligand binding
[15] = molecular target: serotonin transporter (SERT) (Homo sapiens, UniProt P31645); assay: [3H]5-HT uptake in HEK293 hSERT cells; format: cell-based; settings: transfected HEK 293 cells
[16] = molecular target: Adenosine A3 (Homo sapiens, UniProt P0DMS8); assay: Lead Profiling Screen radioligand binding
[17] = molecular target: Platelet Activating Factor (PAF) (Homo sapiens, UniProt P25105); assay: Lead Profiling Screen radioligand binding
[18] = intrinsic clearance in hepatic microsomes; format: in vitro ADME; settings: human; predicted hepatic clearance from microsomal CLint
[19] = molecular target: Opiate δ1 (OP1, DOP) (Homo sapiens, UniProt P41143); assay: Lead Profiling Screen radioligand binding
[20] = molecular target: hERG potassium channel (Homo sapiens, UniProt Q12809); assay: Lead Profiling Screen radioligand binding
[21] = molecular target: Melatonin MT1 (Homo sapiens, UniProt P48039); assay: Lead Profiling Screen radioligand binding
[22] = molecular target: GABAB1A (Homo sapiens, UniProt Q9UBS5); assay: Lead Profiling Screen radioligand binding
[23] = intrinsic clearance in hepatic microsomes; format: in vitro ADME; settings: rat; predicted hepatic clearance from microsomal CLint
[24] = molecular target: Bradykinin B2 (Homo sapiens, UniProt P30411); assay: Lead Profiling Screen radioligand binding
[25] = molecular target: Dopamine D1 (Homo sapiens, UniProt P21728); assay: Lead Profiling Screen radioligand binding
[26] = PBS solubility; format: physicochemical; settings: aqueous buffer
[27] = tested on: Glutamate, Kainate; assay: Lead Profiling Screen radioligand binding; settings: 10 μM ML352
[28] = molecular target: Transporter, Serotonin (5-hydroxytryptamine) (SERT) (Homo sapiens, UniProt P31645); assay: Lead Profiling Screen radioligand binding
[29] = tested on: Glutamate, NMDA, Phancyclidine; assay: Lead Profiling Screen radioligand binding; settings: 10 μM ML352
[30] = molecular target: Glucocorticoid (Homo sapiens, UniProt P04150); assay: Lead Profiling Screen radioligand binding
[31] = molecular target: Neuropeptide Y Y1 (Homo sapiens, UniProt P25929); assay: Lead Profiling Screen radioligand binding
[32] = molecular target: Sigma σ1 (Homo sapiens, UniProt Q99720); assay: Lead Profiling Screen radioligand binding
[33] = molecular target: Bradykinin B1 (Homo sapiens, UniProt P46663); assay: Lead Profiling Screen radioligand binding
[34] = tested on: GABAA, Flunitrazepam, Central; assay: Lead Profiling Screen radioligand binding; settings: 10 μM ML352
[35] = molecular target: AChE (Mus musculus, UniProt P21836); assay: AChE activity in mouse forebrain extracts; format: biochemical; settings: concentrations well above the CHT Ki
AChE, sequence (P21836 32-614): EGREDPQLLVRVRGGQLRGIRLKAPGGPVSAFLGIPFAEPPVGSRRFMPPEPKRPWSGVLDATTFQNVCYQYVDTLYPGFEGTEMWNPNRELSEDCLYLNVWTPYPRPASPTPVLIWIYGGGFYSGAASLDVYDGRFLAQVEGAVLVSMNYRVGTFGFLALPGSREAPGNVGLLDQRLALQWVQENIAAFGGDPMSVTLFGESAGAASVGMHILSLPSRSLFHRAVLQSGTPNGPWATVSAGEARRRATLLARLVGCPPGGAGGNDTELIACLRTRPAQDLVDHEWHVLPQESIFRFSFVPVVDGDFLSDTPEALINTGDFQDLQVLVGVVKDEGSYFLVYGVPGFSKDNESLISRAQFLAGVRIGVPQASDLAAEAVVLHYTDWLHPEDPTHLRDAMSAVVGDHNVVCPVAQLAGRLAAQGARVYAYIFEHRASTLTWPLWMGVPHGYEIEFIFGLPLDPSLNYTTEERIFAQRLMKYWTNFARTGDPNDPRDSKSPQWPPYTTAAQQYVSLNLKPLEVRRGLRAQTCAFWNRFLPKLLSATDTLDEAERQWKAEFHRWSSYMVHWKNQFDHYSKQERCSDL

ChAT, sequence (Q03059 whole entry): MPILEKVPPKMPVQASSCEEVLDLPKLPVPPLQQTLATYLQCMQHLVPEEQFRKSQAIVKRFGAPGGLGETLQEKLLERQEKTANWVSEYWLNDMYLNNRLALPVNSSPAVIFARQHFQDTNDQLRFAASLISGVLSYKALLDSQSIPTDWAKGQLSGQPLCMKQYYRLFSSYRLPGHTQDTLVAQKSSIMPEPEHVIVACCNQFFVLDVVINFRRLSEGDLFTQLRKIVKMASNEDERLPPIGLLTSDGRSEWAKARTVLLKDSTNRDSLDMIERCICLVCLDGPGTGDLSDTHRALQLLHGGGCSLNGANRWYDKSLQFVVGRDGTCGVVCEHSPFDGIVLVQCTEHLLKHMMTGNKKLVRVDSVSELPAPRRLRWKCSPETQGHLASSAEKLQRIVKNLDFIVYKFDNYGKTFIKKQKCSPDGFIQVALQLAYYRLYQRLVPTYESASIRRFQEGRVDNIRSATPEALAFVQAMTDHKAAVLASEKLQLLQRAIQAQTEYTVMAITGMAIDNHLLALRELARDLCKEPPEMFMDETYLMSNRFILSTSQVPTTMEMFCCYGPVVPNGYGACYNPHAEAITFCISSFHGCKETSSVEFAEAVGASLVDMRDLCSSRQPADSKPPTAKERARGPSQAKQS
Glucocorticoid, sequence (P04150 whole entry): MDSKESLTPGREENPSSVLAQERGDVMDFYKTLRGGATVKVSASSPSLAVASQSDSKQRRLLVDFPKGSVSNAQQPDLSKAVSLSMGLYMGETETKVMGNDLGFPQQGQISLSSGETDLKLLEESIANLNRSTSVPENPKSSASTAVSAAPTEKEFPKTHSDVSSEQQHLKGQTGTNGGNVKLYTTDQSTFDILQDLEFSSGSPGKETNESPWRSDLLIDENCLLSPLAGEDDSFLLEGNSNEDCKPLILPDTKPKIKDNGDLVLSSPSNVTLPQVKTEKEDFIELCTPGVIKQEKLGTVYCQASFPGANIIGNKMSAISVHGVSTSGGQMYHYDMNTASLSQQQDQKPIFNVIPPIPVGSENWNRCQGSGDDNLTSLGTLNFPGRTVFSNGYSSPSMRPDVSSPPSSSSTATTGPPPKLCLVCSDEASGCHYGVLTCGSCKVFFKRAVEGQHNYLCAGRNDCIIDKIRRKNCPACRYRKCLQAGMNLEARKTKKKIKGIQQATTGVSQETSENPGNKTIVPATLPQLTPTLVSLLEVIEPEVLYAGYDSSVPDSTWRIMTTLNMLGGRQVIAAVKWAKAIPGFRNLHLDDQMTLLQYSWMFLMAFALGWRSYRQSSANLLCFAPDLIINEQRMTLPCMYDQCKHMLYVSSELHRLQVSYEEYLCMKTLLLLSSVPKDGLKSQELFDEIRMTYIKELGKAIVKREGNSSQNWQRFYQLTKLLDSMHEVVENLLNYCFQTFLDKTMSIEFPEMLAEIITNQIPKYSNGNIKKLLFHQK
Transporter, Norepinephrine (NET), sequence (P23975 whole entry): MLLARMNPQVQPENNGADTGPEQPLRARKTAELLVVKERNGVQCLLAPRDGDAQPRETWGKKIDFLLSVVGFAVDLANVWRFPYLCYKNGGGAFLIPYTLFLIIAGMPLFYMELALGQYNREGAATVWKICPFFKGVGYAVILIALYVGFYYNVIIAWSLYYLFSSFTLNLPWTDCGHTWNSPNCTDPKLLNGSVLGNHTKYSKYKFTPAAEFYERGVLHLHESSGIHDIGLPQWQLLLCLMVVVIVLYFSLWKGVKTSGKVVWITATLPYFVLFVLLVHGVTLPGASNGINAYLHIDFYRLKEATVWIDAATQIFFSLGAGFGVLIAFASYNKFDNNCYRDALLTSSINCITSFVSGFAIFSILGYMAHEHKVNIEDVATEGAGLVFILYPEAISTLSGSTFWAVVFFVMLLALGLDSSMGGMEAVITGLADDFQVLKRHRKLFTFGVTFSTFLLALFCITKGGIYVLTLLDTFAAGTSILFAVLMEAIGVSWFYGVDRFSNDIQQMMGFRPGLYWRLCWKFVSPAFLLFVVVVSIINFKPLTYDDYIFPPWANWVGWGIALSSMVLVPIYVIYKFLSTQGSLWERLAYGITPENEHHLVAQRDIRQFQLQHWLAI
Bradykinin B2, sequence (P30411 whole entry): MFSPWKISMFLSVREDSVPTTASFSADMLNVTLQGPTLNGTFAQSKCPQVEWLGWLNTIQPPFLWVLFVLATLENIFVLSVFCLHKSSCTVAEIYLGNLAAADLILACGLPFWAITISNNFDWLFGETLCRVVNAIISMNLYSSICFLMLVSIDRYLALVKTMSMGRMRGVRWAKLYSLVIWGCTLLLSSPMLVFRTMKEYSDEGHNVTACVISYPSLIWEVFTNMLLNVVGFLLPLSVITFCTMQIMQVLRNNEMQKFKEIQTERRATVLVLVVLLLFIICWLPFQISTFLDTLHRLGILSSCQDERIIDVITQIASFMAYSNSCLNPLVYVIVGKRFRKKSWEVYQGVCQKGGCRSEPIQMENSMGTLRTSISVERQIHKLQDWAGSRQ
P450 2D6, sequence (P10635 whole entry): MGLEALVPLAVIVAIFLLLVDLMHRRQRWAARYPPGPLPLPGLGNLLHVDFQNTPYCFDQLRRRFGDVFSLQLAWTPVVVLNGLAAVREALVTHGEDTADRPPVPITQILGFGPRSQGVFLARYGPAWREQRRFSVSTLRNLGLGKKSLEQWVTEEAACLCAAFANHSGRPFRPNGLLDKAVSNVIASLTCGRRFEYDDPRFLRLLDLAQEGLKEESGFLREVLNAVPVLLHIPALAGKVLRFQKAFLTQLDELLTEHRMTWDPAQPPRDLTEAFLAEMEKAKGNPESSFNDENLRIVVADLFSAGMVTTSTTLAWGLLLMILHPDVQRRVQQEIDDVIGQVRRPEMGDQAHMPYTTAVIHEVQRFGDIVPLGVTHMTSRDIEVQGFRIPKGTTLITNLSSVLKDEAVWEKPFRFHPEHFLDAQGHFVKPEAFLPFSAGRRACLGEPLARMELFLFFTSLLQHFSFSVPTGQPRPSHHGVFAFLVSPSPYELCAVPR
GABAB1A, sequence (Q9UBS5 15-961 limits assumed): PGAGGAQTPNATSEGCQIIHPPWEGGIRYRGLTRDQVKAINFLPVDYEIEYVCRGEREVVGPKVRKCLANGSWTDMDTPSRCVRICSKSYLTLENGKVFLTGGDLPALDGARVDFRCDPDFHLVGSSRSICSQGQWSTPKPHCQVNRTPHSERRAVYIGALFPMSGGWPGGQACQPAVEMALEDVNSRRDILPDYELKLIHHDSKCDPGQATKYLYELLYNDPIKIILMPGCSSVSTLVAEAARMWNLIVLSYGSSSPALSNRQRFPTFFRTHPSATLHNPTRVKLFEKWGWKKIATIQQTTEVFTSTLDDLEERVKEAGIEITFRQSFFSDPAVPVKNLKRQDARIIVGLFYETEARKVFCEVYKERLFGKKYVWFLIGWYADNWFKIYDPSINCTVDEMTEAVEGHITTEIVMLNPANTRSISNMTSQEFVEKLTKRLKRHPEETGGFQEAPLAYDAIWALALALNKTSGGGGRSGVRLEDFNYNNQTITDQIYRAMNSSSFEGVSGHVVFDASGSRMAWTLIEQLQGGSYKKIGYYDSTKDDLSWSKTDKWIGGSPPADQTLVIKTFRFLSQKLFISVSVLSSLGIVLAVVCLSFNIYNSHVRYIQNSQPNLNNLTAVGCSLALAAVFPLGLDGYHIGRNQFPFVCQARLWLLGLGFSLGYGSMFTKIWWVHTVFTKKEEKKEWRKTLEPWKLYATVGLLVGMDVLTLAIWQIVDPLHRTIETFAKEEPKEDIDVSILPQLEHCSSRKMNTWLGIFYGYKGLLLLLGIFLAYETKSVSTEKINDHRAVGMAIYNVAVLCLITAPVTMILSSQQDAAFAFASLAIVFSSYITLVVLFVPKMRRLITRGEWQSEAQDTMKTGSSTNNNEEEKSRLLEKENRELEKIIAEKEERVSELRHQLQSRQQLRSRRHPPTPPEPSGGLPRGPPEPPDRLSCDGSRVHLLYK
Interleukin IL-1, sequence (P13504 20-576): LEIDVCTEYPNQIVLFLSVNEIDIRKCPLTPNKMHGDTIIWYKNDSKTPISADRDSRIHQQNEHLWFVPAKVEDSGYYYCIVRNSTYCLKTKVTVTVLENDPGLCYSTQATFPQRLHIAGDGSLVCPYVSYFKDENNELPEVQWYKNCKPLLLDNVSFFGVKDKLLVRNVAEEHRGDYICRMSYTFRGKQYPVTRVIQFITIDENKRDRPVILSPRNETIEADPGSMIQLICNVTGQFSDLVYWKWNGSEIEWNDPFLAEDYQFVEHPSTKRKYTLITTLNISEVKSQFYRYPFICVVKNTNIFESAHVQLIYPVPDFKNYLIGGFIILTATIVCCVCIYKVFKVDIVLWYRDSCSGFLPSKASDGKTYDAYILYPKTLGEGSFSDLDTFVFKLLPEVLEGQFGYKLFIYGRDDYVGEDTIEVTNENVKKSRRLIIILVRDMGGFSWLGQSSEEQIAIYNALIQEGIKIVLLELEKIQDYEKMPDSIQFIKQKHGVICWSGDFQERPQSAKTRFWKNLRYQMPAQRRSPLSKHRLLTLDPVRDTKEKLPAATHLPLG

Compound: COc1ccc(C(=O)NCc2cc(C(C)C)no2)cc1OC1CCN(C)CC1 [ML352, N-((3-isopropylisoxazol-5-yl)methyl)-4-methoxy-3-((1-methylpiperidin-4-yl)oxy)benzamide]
- inhibition of ChAT activity [1]: no ability; also recorded: lacks activity; also recorded: no inhibition
- inhibition at 10 µM [2]: -2%
- inhibition at 10 µM [3]: 43%
- % inhibition [4]: 6%
- IC50 [5]: > 30 µM
- clearance ([6]; in vivo, iv, 1 mg/kg): 107 mL/min/kg
- half-life ([6]; in vivo, iv, 1 mg/kg): 30 min
- AUC ([6]; plasma, iv, 1 mg/kg): 150 ng·h/mL
- AUC ([6]; plasma, po, 2.3 mg/kg): 77.5 ng·h/mL
- Cmax ([6]; plasma, po, 2.3 mg/kg): 32.6 ng/mL
- Tmax ([6]; plasma, po, 2.3 mg/kg): 15 min
- bioavailability ([6]; plasma, po, 2.3 mg/kg): 22%
- % inhibition [7]: 5%
- inhibition at 10 µM [8]: 2%
- inhibition at 10 µM [9]: 23%
- inhibition at 10 µM [10]: -7%
- inhibition at 10 µM [11]: 12%
- [3H]HC-3 binding Bmax ([12]; 200 nM ML352): 80.3 ± 3.8%
- [3H]HC-3 binding Bmax ([12]; 800 nM ML352): 48.9 ± 4.1%
- mode of inhibition of [3H]HC-3 binding ([12]; transfected cell membranes, 200 and 800 nM ML352): noncompetitive inhibition
- inhibition at 10 µM [13]: 32%
- inhibition at 10 µM [14]: 7%
- inhibitory activity at SERT [15]: lack of inhibitory activity
- inhibition at 10 µM [16]: 4%
- inhibition at 10 µM [17]: -4%
- CLhep [18]: 6.9 mL/min/kg
- inhibition at 10 µM [19]: -2%
- inhibition at 10 µM [20]: 16%
- inhibition at 10 µM [21]: 5%
- inhibition at 10 µM [22]: -9%
- CLhep [23]: 40.3 mL/min/kg
- inhibition at 10 µM [24]: -3%
- inhibition at 10 µM [25]: 9%
- solubility [26]: 98.2 ± 1.1 µM (≈ 38.1 µg/mL)
- % inhibition [27]: –2%
- inhibition at 10 µM [28]: 2%
- % inhibition [29]: –5%
- inhibition at 10 µM [30]: -1%
- inhibition at 10 µM [31]: -2%
- inhibition at 10 µM [32]: -1%
- inhibition at 10 µM [33]: 6%
- % inhibition [34]: 6%
- inhibition of AChE [35]: no ability; also recorded: lacks activity; also recorded: no inhibition
